Results as given in US10584108B2, “Therapeutic compounds and methods of use thereof” (KUALITY HERBCEUTICS LLC, priority 2015, dated 2020).

Assays:
[1] = tested on: CYP1A1 mRNA in Hepe1c1c7 cells; test: Test B: in vitro effect on CYP1A1 activation (CYP1A1 mRNA by q-RT PCR); format: cell-based; conditions: 5 μM in 0.5% DMSO, ratio treated to untreated, normalized to GAPDH mRNA
Procedure: The ability of a compound of the invention to effect CYP1A1 activation may be determined using pharmacological models which are well known to the art, or using Test B described below.
General Procedures of the In Vitro Effect on CYP1A1 Activation
Hepe1c1c7 cells were cultured under standard conditions and seeded in 6-well plate. After complete attachment (12-24 hours after seeding), the cells were treated with the corresponding compounds at the concentration of 5 μM, supplemented in 0.5% DMSO. Cells were trypsinized and pelleted. mRNAs were isolated. The relative amount of CYP1A1 mRNA were quantified via q-RT PCR and normalized to the amount of GAPDH mRNA from the same sample. Induction of CYP1A1 mRNA is defined as the ratio of CYP1A1 mRNA between treated samples to the untreated sample.

[2] = tested on: NNK-induced O^6-mG in A/J mouse lung tissues; test: Test A: in vivo effect on NNK-induced O^6-mG in A/J mouse lung tissues; conditions: A/J mice, compound 0.2 mg/g of diet for seven days, NNK 100 mg/kg i.p., lung tissue four hours after NNK
Text: The ability of a compound of the invention to effect NNK-induced O^6-mG in A/J mouse lung tissues may be determined using pharmacological models which are well known to the art, or using Test A described below.
General Procedure of the In Vivo Effect on NNK-induced O^6-mG in A/J Mouse Lung Tissues
Five-six week old A/J mice were purchased from Jackson Lab. After one week of acclimatization, mice were randomized into different groups. Mice were given to the AIN-G powdered diet supplemented with the corresponding compound at a dose of 0.2 mg/g of diet for seven days. Subsequently, with the exception of mice in the negative control groups, animals were given NNK (100 mg/kg of bodyweight at the beginning of Day 7 via i.p. injection) (control mice will be given saline). Four hours NNK administration, mice in each group were euthanized with serum, urine, lung and liver tissues collected. O^6-mG DNA adducts in the lung tissues were quantified following established procedures (1, 2). The relative amount of reduction was calculated as the percentage of reduction relative the amount of O^6-mG in the NNK-treated positive control group.

[3] = molecular target: T1, aryl hydrocarbon receptors (Homo sapiens, UniProt P35869); conditions: background statement, literature; cited from earlier work
T1 sequence (P35869 11-848): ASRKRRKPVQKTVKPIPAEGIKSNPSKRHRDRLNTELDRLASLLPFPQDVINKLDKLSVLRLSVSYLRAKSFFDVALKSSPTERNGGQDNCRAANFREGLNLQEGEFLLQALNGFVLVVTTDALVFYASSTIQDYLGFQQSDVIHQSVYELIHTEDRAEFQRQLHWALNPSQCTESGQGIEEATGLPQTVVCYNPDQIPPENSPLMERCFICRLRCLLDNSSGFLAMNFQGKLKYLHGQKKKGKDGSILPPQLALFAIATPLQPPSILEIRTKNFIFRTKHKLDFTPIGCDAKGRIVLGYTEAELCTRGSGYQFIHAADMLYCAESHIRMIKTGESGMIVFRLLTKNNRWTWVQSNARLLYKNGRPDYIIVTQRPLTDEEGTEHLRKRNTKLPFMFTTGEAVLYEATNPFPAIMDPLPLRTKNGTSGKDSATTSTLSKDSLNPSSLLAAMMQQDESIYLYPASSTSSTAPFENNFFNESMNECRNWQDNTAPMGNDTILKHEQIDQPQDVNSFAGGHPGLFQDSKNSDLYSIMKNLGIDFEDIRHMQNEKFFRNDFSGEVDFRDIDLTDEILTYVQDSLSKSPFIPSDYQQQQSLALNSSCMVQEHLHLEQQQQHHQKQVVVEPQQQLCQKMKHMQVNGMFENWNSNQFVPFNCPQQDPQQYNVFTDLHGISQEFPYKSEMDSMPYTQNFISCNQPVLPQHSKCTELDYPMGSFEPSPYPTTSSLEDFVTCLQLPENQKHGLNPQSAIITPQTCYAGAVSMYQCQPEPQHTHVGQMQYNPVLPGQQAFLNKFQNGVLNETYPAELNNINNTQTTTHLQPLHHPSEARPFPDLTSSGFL

[4] = tested on: NNK-induced DNA damage (O^6-mG); conditions: background statement, literature; cited from earlier work
[5] = tested on: NNK-induced lung tumorigenesis; conditions: background statement, literature; cited from earlier work

SMILES	Induction of CYP1A1 mRNA [1]	Relative amount of reduction in O^6-mG (mean ± SD) % in comparison to NNK-treated control [2]	also measured
COC1=CC(=O)OC(CCc2ccc3c(c2)CCC3)C1 (stereo not drawn)	0.79 ± 0.02	29.7 ± 16.3%	
O=C1C=C(O)CC(CCc2ccc3c(c2)OCO3)O1 (stereo not drawn)	1.20 ± 0.1	55.9 ± 19.7%	
COC1=C(C)C(=O)OC(CCc2ccc3c(c2)OCO3)C1 (stereo not drawn)	0.59 ± 0.04	65.3 ± 5.8%	
COC1=CC(=O)OC(CCc2ccc(OC)c(O)c2)C1 (stereo not drawn)	5.61 ± 0.40	−2.6 ± 14.7%	
O=C1C=CCC(CCc2ccc3c(c2)OCO3)O1 (stereo not drawn)	5.94 ± 0.22	35.2 ± 31.8%	
COC1=CC(=O)O[C@@H](CCc2ccc3c(c2)OCO3)C1 [dihydromethysticin]			Activation of aryl hydrocarbon receptors [3]: activate
COC1=CC(=O)O[C@@H](CCc2ccc3c(c2)OCO3)C1 [(+)-Dihydromethysticin]			Inhibition of NNK-induced O^6-mG DNA damage [4]: can be inhibited; Block of NNK-induced lung tumorigenesis [5]: effectively block
COC1=CC(=O)O[C@H](CCc2ccc3c(c2)OCO3)C1		79.6 ± 1.5%	
COC1=CC(=O)OC(/C=C/c2ccc3c(c2)OCCO3)C1 (stereo not drawn) [drawing 65]		5.2 ± 13.0%	
COC1=CC(=O)OC(/C=C/c2ccc3c(c2)OCCO3)C1 (stereo not drawn) [drawing 40]	1.15 ± 0.02	5.2 ± 13.0%	
COC1=CC(=O)OC(CCc2ccc3c(c2)OCO3)C1 (stereo not drawn)		72.7 ± 6.6%	
COC1=CC(=O)OC(CCc2ccc3c(c2)OCCO3)C1 (stereo not drawn)	3.73 ± 0.26	3.24 ± 13.4%	
COC1=CC(=O)CC(CCc2ccc3c(c2)CCC3)C1 (stereo not drawn)		11.8 ± 23.1%	
COC1=CC(=O)O[C@@H](CCc2ccc3c(c2)OCO3)C1 [drawing 26]	1.88 ± 0.07	76.9 ± 2.6%	
COC1=CC(=O)CC(CCc2ccc3c(c2)OCO3)C1 (stereo not drawn)	5.58 ± 0.55	63.7 ± 21.9%	
COC1=CC(=O)OC(C)(CCc2ccc3c(c2)OCO3)C1 (stereo not drawn)	2.49 ± 0.08	56.2 ± 8.1%	
COC1=CC(=O)OC(/C=C/c2ccc3c(c2)OCO3)C1 (stereo not drawn)	0.26 ± 0.01	54.6 ± 1.2%	
COC1=CC(=O)OC(CCc2ccc3c(c2)OCO3)C1C (stereo not drawn)	2.16 ± 0.11		
